Results as given in publication PMC3623016 (Journal of biomolecular screening, 2012).
Several values for one entry are separate records, joined by “and”; a condition that tells them apart may be missing. Equal values may be shown once.

Columns and labels:
Ig-MXP3 cells = assay: Direct cytotoxicity; assay type: cell-based
ABCG2 = target: T1, ABCG2 (Homo sapiens, UniProt Q9UNQ0); assay: JC-1 efflux inhibition dose-response, flow cytometry, Ig-MXP3 cells; assay type: cell-based; details: quotient of average ABCB1 IC50 and average ABCG2 IC50, JC-1 efflux assay
T1 sequence (Q9UNQ0 1-655): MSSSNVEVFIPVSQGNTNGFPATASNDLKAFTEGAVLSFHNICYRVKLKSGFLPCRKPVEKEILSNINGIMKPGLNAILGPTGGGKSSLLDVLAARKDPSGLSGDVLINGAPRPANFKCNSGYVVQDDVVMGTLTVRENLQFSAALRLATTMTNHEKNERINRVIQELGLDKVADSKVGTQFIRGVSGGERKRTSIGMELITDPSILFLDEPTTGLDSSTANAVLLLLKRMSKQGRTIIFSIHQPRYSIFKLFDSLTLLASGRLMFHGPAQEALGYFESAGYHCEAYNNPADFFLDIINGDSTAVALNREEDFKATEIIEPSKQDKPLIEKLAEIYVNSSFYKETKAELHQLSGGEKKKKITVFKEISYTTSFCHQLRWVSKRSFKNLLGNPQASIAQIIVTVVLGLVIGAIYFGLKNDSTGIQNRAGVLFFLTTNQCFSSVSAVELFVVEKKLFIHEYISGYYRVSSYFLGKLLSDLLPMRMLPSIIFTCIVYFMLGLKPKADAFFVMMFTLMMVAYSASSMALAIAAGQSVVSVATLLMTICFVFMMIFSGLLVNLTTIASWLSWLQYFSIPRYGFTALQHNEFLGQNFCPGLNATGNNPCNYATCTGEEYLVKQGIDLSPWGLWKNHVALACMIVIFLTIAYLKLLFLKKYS

Compound	ABCB1 TD50 (Jurkat-DNR cells)	ABCG2 TD50 (Ig-MXP3 cells)	∼Fold G2 Selective (ABCG2)
O=C(NCCCN1CCOCC1)c1cnn2c(-c3ccccc3)cc(-c3ccccc3)nc12 [Compound 6, reversan, reference compound]	7.04 µM	>100 µM	–
O=C(c1ccco1)N1CCN(c2cc(-c3ccccc3)nc3cc(-c4cccc(Cl)c4)nn23)CC1 [Compound 8]	6.77 µM	6.00 µM	6.4 fold
Cc1nc2cc(-c3cccc(Cl)c3)nn2c(N2CCN(C(=O)c3ccco3)CC2)c1C [Compound 9]	>100 µM	47.40 µM	3.2 fold
Cc1cc(N2CCN(C(=O)c3ccco3)CC2)n2nc(-c3cccc(Cl)c3)cc2n1 [Compound 10]	–	–	2.1 fold
O=C(c1ccoc1)N1CCN(c2cc(-c3ccccc3)nc3cc(-c4cccc(Cl)c4)nn23)CC1 [Compound 11]	–	–	7 fold and 7.2 fold
O=C(c1ccsc1)N1CCN(c2cc(-c3ccccc3)nc3cc(-c4cccc(Cl)c4)nn23)CC1 [Compound 12]	–	–	2.8 fold
O=C(c1ccccc1)N1CCN(c2cc(-c3ccccc3)nc3cc(-c4cccc(Cl)c4)nn23)CC1 [Compound 13]	–	–	2.4 fold
COc1ccccc1C(=O)N1CCN(c2cc(-c3ccccc3)nc3cc(-c4cccc(Cl)c4)nn23)CC1 [Compound 14]	–	–	1.0 fold
COc1cccc(C(=O)N2CCN(c3cc(-c4ccccc4)nc4cc(-c5cccc(Cl)c5)nn34)CC2)c1 [Compound 15]	>100 µM	>100 µM	0.6 fold
COc1ccc(C(=O)N2CCN(c3cc(-c4ccccc4)nc4cc(-c5cccc(Cl)c5)nn34)CC2)cc1 [Compound 16]	–	–	1.0 fold
O=C(c1ccccc1Cl)N1CCN(c2cc(-c3ccccc3)nc3cc(-c4cccc(Cl)c4)nn23)CC1 [Compound 17]	–	–	1.4 fold
O=C(c1cccc(Cl)c1)N1CCN(c2cc(-c3ccccc3)nc3cc(-c4cccc(Cl)c4)nn23)CC1 [Compound 18]	–	–	1.4 fold
O=C(c1ccc(Cl)cc1)N1CCN(c2cc(-c3ccccc3)nc3cc(-c4cccc(Cl)c4)nn23)CC1 [Compound 19]	–	–	0.9 fold
O=C(c1cccnc1)N1CCN(c2cc(-c3ccccc3)nc3cc(-c4cccc(Cl)c4)nn23)CC1 [Compound 20]	4.72 µM	10.30 µM	2.5 fold
O=C(c1ccncc1)N1CCN(c2cc(-c3ccccc3)nc3cc(-c4cccc(Cl)c4)nn23)CC1 [Compound 21]	10.90 µM	28.30 µM	1.1 fold
O=C(C1CCCCC1)N1CCN(c2cc(-c3ccccc3)nc3cc(-c4cccc(Cl)c4)nn23)CC1 [Compound 22]	–	–	1.2 fold
CC(=O)N1CCN(c2cc(-c3ccccc3)nc3cc(-c4cccc(Cl)c4)nn23)CC1 [Compound 23]	–	–	0.9 fold
O=C(Cc1ccccc1)N1CCN(c2cc(-c3ccccc3)nc3cc(-c4cccc(Cl)c4)nn23)CC1 [Compound 24]	17.80 µM	>100 µM	0.8 fold
O=C(c1ccoc1)N1CCN(c2cc(-c3ccccc3F)nc3cc(-c4cccc(Cl)c4)nn23)CC1 [Compound 26]	–	–	2.4 fold
O=C(c1ccoc1)N1CCN(c2cc(-c3ccc(F)cc3)nc3cc(-c4cccc(Cl)c4)nn23)CC1 [Compound 27]	–	–	2.3 fold
COc1cccc(-c2cc(N3CCN(C(=O)c4ccoc4)CC3)n3nc(-c4cccc(Cl)c4)cc3n2)c1 [Compound 28]	–	–	1.9 fold
COc1ccc(-c2cc(N3CCN(C(=O)c4ccoc4)CC3)n3nc(-c4cccc(Cl)c4)cc3n2)cc1 [Compound 29]	–	–	2.4 fold
O=C(c1ccoc1)N1CCN(c2cc(-c3cccnc3)nc3cc(-c4cccc(Cl)c4)nn23)CC1 [Compound 30]	5.33 µM	5.77 µM	2.9 fold
O=C(c1ccoc1)N1CCN(c2cc(-c3ccncc3)nc3cc(-c4cccc(Cl)c4)nn23)CC1 [Compound 31]	13.50 µM	57.80 µM	2.5 fold

Compound	ABCB1 TD50 (Jurkat-DNR cells)	ABCG2 TD50 (Ig-MXP3 cells)	∼Fold G2 Selective (ABCG2)
C#Cc1cc(N2CCN(C(=O)c3ccoc3)CC2)n2nc(-c3cccc(Cl)c3)cc2n1 [Compound 32]	–	–	4.3 fold
O=C(c1ccoc1)N1CCN(c2cc(-c3ccccc3)nc3cc(-c4ccc(Br)cc4)nn23)CC1 [Compound 33]	–	–	1.7 fold
COc1cccc(-c2cc3nc(-c4ccccc4)cc(N4CCN(C(=O)c5ccoc5)CC4)n3n2)c1 [Compound 35]	–	–	2.0 fold
COc1ccccc1-c1cc2nc(-c3ccccc3)cc(N3CCN(C(=O)c4ccco4)CC3)n2n1 [Compound 37]	–	–	2.9 fold
COc1cccc(-c2cc3nc(-c4ccccc4)cc(N4CCN(C(=O)c5ccco5)CC4)n3n2)c1 [Compound 38]	–	–	3.4 fold
CCCN(CCc1ccccc1)C(=O)[C@@H]1OC(C(=O)O)=C[C@H](O)[C@H]1NC(C)=O [Compound 39]	–	–	2.7 fold
Cc1cccc(-c2cc3nc(-c4ccccc4)cc(N4CCN(C(=O)c5ccco5)CC4)n3n2)c1 [Compound 40]	–	–	1.6 fold
COc1ccccc1-c1cc2nc(-c3ccccc3)cc(N3CCN(C(=O)c4ccccc4)CC3)n2n1 [Compound 41]	–	–	3.0 fold
O=C(c1ccccc1)N1CCN(c2cc(-c3ccccc3)nc3cc(-c4cccc(F)c4)nn23)CC1 [Compound 42]	–	–	1.9 fold
O=C(c1ccccc1)N1CCN(c2cc(-c3ccccc3)nc3cc(-c4ccc(F)cc4)nn23)CC1 [Compound 43]	–	–	2.0 fold
COc1ccc(-c2cc(N3CCN(C(=O)c4ccoc4)CC3)n3nc(-c4ccccc4)cc3n2)cc1 [Compound 45]	–	–	1.9 fold
O=C(c1ccoc1)N1CCN(c2cc(-c3ccccc3F)nc3cc(-c4ccccc4)nn23)CC1 [Compound 46]	–	–	10.0 fold
O=C(c1ccoc1)N1CCN(c2cc(-c3cccc(F)c3)nc3cc(-c4ccccc4)nn23)CC1 [Compound 47]	–	–	4.2 fold
O=C(c1ccoc1)N1CCN(c2cc(-c3ccc(F)cc3)nc3cc(-c4ccccc4)nn23)CC1 [Compound 48]	–	–	1.8 fold
CC(C)(C)c1cc(N2CCN(C(=O)c3ccoc3)CC2)n2nc(-c3ccccc3)cc2n1 [Compound 49]	–	–	0.5 fold
O=C(c1ccoc1)N1CCN(c2cc(-c3ccco3)nc3cc(-c4ccco4)nn23)CC1 [Compound 52]	1.93 µM	>100 µM	–
O=C(c1ccoc1)N1CCN(c2cc(-c3ccco3)nc3cc(-c4cccc(Cl)c4)nn23)CC1 [Compound 53]	8.53 µM	10.80 µM	–
COc1cccc(-c2cc3nc(-c4ccco4)cc(N4CCN(C(=O)c5ccoc5)CC4)n3n2)c1 [Compound 56]	5.52 µM	>100 µM	–
COc1ccc(-c2cc3nc(-c4ccco4)cc(N4CCN(C(=O)c5ccoc5)CC4)n3n2)cc1 [Compound 57]	>100 µM	>100 µM	–
O=C(c1ccoc1)N1CCN(c2cc(-c3ccoc3)nc3cc(-c4ccccc4)nn23)CC1 [Compound 61]	7.33 µM	18.30 µM	–
CC(=O)N1CCN(c2cc(-c3ccco3)nc3cc(-c4ccccc4)nn23)CC1 [Compound 74]	10.10 µM	>100 µM	–
CC(=O)N1CCN(c2cc(-c3ccco3)nc3cc(-c4cccc(Cl)c4)nn23)CC1 [Compound 87]	17.60 µM	>100 µM	–
COc1cccc(-c2cc3nc(-c4ccco4)cc(N4CCN(C(C)=O)CC4)n3n2)c1 [Compound 88]	49.30 µM	>100 µM	–
XR9051 [Compound 2, reference compound]	1.97 µM	21.40 µM	–
